Data from patent US7491704B2, “Compounds for enzyme inhibition” (Proteolix, Inc., priority 2004, dated 2009).

Tests used:
[1] = target: 20S proteasome chymotrypsin-like activity (CT-L) (Homo sapiens, UniProt P20618+P28074); assay: 20S proteasome chymotrypsin-like (CT-L) activity inhibition; format: biochemical
Method: The enzyme inhibitor analogs and prodrugs disclosed herein are useful in part because they inhibit the action of the 20S proteasome. […] That is, the instant compounds show selectivities for the 20S proteasome over other proteases such as cathepsins, calpains, papain, chymotrypsin, trypsin, tripeptidyl pepsidase II. The selectivities of the enzyme inhibitors for 20S proteasome are such that at concentrations below about 50 μM, the enzyme inhibitors show inhibition of the catalytic activity of the 20S proteasome, while not showing inhibition of the catalytic activity of other proteases such as cathepsins, calpains, papain, chymotrypsin, trypsin, tripeptidyl pepsidase II. In preferred embodiments, the enzyme inhibitors show inhibition of the catalytic activity of the 20S proteasome at concentrations below about 10 μM, while not showing inhibition of the catalytic activity of other proteases at these concentrations. […]
The chymotrypsin-like activity of 20S proteasome is characterized by cleavage of peptides in the immediate vicinity of large hydrophobic residues. In particular, the chymotrypsin-like activity of Ntn hydrolases can be determined by cleavage of a standard substrate. […]

[2] = target: T1, proteasome chymotrypsin-like activity (CT-L), cell-based (Homo sapiens, UniProt P28074); assay: Cell-based CT-L activity inhibition
T1 construct: endogenous in cells
T1 sequence (P28074 60-263): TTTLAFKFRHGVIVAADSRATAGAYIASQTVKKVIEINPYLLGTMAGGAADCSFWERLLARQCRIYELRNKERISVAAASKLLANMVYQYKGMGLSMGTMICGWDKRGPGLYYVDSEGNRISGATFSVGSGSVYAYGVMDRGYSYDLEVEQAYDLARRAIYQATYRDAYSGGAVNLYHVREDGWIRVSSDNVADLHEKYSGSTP

IC50 [1]: < 0.1 µM
IC50 [2]: < 0.1 µM
Structure (SMILES): CC(C)CC(NC(=O)C(CCc1ccccc1)NC(=O)CN(C)C)C(=O)NC(Cc1ccccc1)C(=O)NC(CC(C)C)C(=O)C1(C)CO1 (centres unmarked) [compound 3]
